Laboratory results published in patent US20240083910A1, “AMIDO-SUBSTITUTED PYRIDYL COMPOUNDS AND METHODS OF USE THEREOF FOR THE TREATMENT OF HERPESVIRUSES” (Merck Sharp & Dohme LLC, priority 2020, published 2024).

Columns and labels:
VZV = experiment: Viral qPCR assay, VZV; type: cell-based, varicella zoster virus; settings: MeWo or MRC5 cells, 0.04-0.1 pfu/cell, growth medium, viral genome copies by qPCR
Method: (§1) MRC5 cells, Vero cells, and MeWo cells were obtained from ATCC, and were maintained at 37° C./5% CO2/90% relative humidity in Minimal Essential Medium with 10% fetal bovine serum, […] L-glutamine, 100 units/ml penicillin and 100 ug/ml streptomycin. Assay plates were prepared by dispensing compounds dissolved in DMSO into wells of 384 well collagen-coated plates using an ECHO acoustic dispenser. Each compound was tested in a 10-point, serial 3-fold dilution. Controls included uninfected cells and infected cells treated only with DMSO. Assays were initiated by mixing selected cells, in suspension, with virus, and dispensing 50 μl/well infected cells to pre-plated compounds. Plates were incubated at 37° C./5% CO2/90% relative humidity for ˜72 hrs to permit genomic replication, and infected cells were lysed by the addition of an equal volume of lysis buffer (10 mM Tris-HCl, pH8, 50 mM KCl, 2 mM MgCl2, 0.45% NP-40, 0.45% Tween-20, and 100 μg/ml proteinase K). An aliquot of the lysate was transferred to a 384-well PCR plate and incubated at 56° C. for 1 hour and then at 95° C. for 10 min. Levels of a viral gene and of the cellular control, PPIA (Thermo Fisher Assay ID=Hs04194521_s1), were measured in separate 10 ul qPCR assays using TaqMan® Gene Expression Master Mix (Applied Biosystems), and an 7900HT Fast Real-Time PCR System with 384-Well Block Module. 7-point, serial 10-fold dilutions of a plasmid standard were run on each plate to generate a standard curve, and genome copies numbers were calculated by plotting experimental Ct onto linear regression of the standard curve. Viral genome copy numbers were normalized by cellular control copy number, and compound effects were normalized to the window defined by the controls. Calculated % effects were fit using a 4-parameter algorithm, and EC50 was reported.
(§2) MRC5 cells, Vero cells, and MeWo cells were obtained from ATCC, and were maintained at 37° C./5% CO2/90% relative humidity in Minimal Essential Medium with 10% fetal bovine serum, […] L-glutamine, 100 units/ml penicillin and 100 ug/ml streptomycin. Assay plates were prepared by dispensing compounds dissolved in DMSO into wells of 384 well collagen-coated plates using an ECHO acoustic dispenser. Each compound was tested in a 10-point, serial 3-fold dilution. Controls included uninfected cells and infected cells treated only with DMSO. Assays were initiated by mixing selected cells, in suspension, with virus, and dispensing 50 μl/well infected cells to pre-plated compounds. Plates were incubated at 37° C./5% CO2/90% relative humidity for ˜72 hrs to permit genomic replication, and infected cells were lysed by the addition of an equal volume of lysis buffer (10 mM Tris-HCl, pH 8, 50 mM KCl, 2 mM MgC12, 0.45% NP-40, 0.45% Tween-20, and 100 μg/ml proteinase K). An aliquot of the lysate was transferred to a 384-well PCR plate and incubated at 56° C. for 1 hour and then at 95° C. for 10 min. Levels of a viral gene were measured in 10 ul qPCR assays using TaqMan® Gene Expression Master Mix (Applied Biosystems), and an 7900HT Fast Real-Time PCR System with 384-Well Block Module. 7-point, serial 10-fold dilutions of a plasmid standard were run on each plate to generate a standard curve, and genome copies numbers were calculated by plotting experimental Ct onto linear regression of the standard curve. Compound effects on viral genome copy number were normalized to the window defined by the controls. Calculated % effects were fit using a 4-parameter algorithm, and ECso was reported.
VZV: Strain Street was maintained as an infected cell stock in MRC-5 cells. It was assayed in MeWo or MRC5 cells and was used at 0.04-0.1 pfu/cell. The assays were performed in growth medium. Primer-probe set was Thermo Fisher Assay ID=AIPAEXQ.

[1] = biological target: T1, Human cytomegalovirus DNA polymerase (Human cytomegalovirus, UniProt P08546); experiment: CMV polymerase assay (AlphaLISA); type: biochemical; settings: HCMV polymerase 0.2 nM; 30 min pre-incubation; 60 min at 37° C.; read-out: CMV (IC50)
T1 construct: made in house; host or cells: SF21 insect cells (baculovirus vector)
Method: (§3) Human cytomegalovirus and varicella zoster virus DNA polymerases were expressed via baculovirus vector in SF21 cells and purified. Heterodimeric nucleic acid substrate used in the herpesvirus polymerase reactions was generated by annealing a 59-mer template to a 17-mer digoxigenin-labeled primer. Polymerase (HCMV final concentration of 0.2 nM; VZV final concentration of 0.4 nM) was combined with an inhibitor compound or DMSO in assay buffer (10 mM HEPES, pH 7.5, 25 mM KCl, 25 mM NaCl, 5 mM MgCl2, 5% glycerol, 0.67 mg/ml bovine serum albumin, and 1 mM tris(2-carboxyethyl)phosphine), and this mixture was pre-incubated for 30 minutes at room temperature in 384-well microtiter plates. The polymerization reaction was initiated by the addition of template/primer substrate (final concentration: 1.6 nM), and dNTPs (final concentration: 24 nM dCTP, 24 nMdGTP, 16 nM dATP, 16 nM dTTP, and 0.8 nM biotin-dUTP). After 60 min incubation at 37° C., reactions were terminated with quench buffer (25 mM HEPES pH 7.5, 100 mM NaCl, 0.25% Tween-20, 12 mM EDTA, and 1 mg/ml bovine serum albumin). Incorporation of biotinylated UTP was detected with 2.5-5 ug/ml anti-DIG AlphaLISA acceptor beads and 5-10 ug/ml streptavidin AlphaLISA donor beads (PerkinElmer). Compound effects were normalized to the window defined by the controls (DMSO only and pre-quenched wells) and were fit using a 4-parameter algorithm to report an IC50.

[2] = biological target: T2, varicella zoster virus DNA polymerase (Varicella-zoster virus, UniProt P09252); experiment: VZV polymerase assay (AlphaLISA); type: biochemical; settings: VZV polymerase 0.4 nM; 30 min pre-incubation; 60 min at 37° C.
T2 construct: made in house; host or cells: SF21 insect cells (baculovirus vector)
Method: as §3

HCMV Strain AD169 = experiment: Viral qPCR assay, HCMV; type: cell-based, Human cytomegalovirus; settings: Human betaherpesvirus 5, AD169, MRC5, 72 h, MRC-5 cells, 0.05-0.1 pfu/cell, growth media or 50% fetal bovine serum, viral genome copies by qPCR, read-out: CMV Cell (EC50)
Method: as §1, §2
HCMV: Strain AD169 Street was assayed in MRC-5 cells and was used at 0.05-0.1 pfu/cell. The assays were performed in either growth media or in the same media with 50% fetal bovine serum. Primer-probe set was Thermo Fisher Assay ID=AIFATFK.

HSV-1 Strain F = experiment: Viral qPCR assay, HSV-1; type: cell-based, Herpes Simplex Virus type 1; settings: Human alphaherpesvirus 1, 72 h, Vero or MRC5 cells, 0.0005-0.004 pfu/cell, growth medium, viral genome copies by qPCR, read-out: HSV1 Cell (EC50)
Method: as §1, §2
HSV-1: Strain F […] was assayed in Vero or MRC5 cells and was used at 0.0005-0.004 pfu/cell in growth medium. Primer-probe set was Thermo Fisher Assay ID=AIBJZIB

T1 sequence (P08546 whole entry): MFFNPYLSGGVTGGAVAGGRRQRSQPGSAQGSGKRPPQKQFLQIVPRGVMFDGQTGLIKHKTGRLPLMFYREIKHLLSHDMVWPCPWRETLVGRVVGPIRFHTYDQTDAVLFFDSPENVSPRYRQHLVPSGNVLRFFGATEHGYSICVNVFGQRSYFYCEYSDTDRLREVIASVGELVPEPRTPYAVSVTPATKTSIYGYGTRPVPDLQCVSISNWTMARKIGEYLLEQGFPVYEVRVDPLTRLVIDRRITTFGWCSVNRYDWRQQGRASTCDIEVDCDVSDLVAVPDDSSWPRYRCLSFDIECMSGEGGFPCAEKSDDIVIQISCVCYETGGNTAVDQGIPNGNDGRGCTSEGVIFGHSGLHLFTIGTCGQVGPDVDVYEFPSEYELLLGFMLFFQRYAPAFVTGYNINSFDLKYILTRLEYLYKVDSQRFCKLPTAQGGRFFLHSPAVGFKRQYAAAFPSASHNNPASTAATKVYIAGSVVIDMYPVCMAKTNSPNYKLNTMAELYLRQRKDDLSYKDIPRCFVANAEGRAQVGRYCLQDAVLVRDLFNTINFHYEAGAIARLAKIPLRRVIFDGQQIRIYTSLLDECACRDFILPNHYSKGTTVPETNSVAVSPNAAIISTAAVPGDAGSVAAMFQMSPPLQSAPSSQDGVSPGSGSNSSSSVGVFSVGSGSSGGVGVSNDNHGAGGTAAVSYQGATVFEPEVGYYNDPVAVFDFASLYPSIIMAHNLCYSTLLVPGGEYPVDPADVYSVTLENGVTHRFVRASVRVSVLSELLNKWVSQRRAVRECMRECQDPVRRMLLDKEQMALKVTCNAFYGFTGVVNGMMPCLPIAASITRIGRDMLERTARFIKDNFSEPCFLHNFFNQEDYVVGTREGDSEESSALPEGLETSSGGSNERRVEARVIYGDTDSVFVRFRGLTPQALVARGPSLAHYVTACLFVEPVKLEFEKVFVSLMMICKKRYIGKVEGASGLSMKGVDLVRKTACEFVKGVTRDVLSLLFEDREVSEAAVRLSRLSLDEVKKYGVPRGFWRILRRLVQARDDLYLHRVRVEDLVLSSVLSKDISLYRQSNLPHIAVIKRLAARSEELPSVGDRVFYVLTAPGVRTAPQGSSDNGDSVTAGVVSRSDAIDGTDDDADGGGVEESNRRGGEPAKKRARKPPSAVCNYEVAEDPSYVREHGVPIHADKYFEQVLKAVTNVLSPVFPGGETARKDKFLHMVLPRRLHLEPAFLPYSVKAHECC
T2 sequence (P09252 whole entry): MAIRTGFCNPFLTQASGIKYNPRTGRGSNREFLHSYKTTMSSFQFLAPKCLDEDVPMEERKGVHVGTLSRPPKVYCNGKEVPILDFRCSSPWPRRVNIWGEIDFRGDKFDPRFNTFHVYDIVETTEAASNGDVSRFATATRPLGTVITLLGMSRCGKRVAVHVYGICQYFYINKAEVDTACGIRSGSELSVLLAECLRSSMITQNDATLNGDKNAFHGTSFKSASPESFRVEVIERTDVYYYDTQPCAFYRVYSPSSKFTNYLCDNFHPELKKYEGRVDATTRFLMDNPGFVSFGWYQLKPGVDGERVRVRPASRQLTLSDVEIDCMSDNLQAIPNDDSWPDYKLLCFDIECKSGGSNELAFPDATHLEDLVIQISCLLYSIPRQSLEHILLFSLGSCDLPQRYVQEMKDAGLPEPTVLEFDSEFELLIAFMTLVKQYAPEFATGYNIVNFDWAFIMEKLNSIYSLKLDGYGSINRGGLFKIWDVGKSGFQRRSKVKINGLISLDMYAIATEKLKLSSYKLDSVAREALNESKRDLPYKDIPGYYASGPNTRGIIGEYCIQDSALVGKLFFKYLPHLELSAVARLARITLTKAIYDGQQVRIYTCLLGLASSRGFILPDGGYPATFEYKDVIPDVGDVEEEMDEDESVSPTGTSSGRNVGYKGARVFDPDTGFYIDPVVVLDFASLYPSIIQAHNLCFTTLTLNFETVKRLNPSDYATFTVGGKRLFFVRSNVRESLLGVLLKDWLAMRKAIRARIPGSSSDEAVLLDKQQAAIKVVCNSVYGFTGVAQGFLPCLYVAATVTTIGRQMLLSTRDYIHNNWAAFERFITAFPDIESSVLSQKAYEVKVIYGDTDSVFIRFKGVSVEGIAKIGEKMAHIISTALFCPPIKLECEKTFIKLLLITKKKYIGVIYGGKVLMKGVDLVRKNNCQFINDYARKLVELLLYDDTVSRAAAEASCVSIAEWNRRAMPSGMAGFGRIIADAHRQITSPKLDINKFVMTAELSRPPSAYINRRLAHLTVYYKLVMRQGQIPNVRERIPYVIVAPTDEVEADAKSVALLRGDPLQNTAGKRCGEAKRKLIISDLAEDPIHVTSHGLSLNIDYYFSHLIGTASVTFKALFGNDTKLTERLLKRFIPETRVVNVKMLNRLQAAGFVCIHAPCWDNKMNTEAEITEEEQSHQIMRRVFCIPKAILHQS

Structure (SMILES) | EC50 (VZV; Human alphaherpesvirus 3, 72 h) [nM] | IC50 [1] [nM] | IC50 [2] [nM] | EC50 (HCMV Strain AD169) [nM] | EC50 (HSV-1 Strain F) [nM] | EC50 (VZV; ~72 hrs) [nM]
COc1ncc(O[C@H]2CCN3C(=O)OC[C@@H]3C2)cc1C(=O)NCc1ccc(Cl)cc1 [Compound 103] | 5500 | 249 | 110 | 4690 | – | –
COc1nc(-c2ccsc2)c(O[C@H]2CCN3C(=O)OC[C@@H]3C2)cc1C(=O)NCc1ccc(Cl)cc1 [Compound 21] | 417 | 20.9 | – | 500 | 377 | –
COc1nc(-c2cnn(C(F)F)c2)c(O[C@@H]2CCN(C(C)=O)[C@H](C)C2)cc1C(=O)NCc1ccc(Cl)cc1 [Compound 102] | 887 | 14.5 | – | 344 | 601 | –
COc1nc(-c2ccc(C)o2)c(O[C@H]2CCN3C(=O)OC[C@@H]3C2)cc1C(=O)NCc1ccc(Cl)cc1 [Compound 13] | 307 | 16.2 | – | 457 | 229 | –
COc1nc(-c2ccncc2)c(O[C@H]2CCN3C(=O)OC[C@@H]3C2)cc1C(=O)NCc1ccc(Cl)cc1 [Compound 42] | 130 | 10.4 | – | 194 | 79.8 | –
COc1nc(-c2csc(-n3cccn3)n2)c(O[C@H]2CCN3C(=O)OC[C@@H]3C2)cc1C(=O)NCc1ccc(Cl)cc1 [Compound 29] | 368 | 31.2 | – | 514 | 246 | –
COc1ccc(-c2nc(OC)c(C(=O)NCc3ccc(Cl)cc3)cc2O[C@H]2CCN3C(=O)OC[C@@H]3C2)s1 [Compound 33] | 679 | 11 | – | 901 | 144 | –
COc1nc(-c2ccc(N)nc2)c(O[C@H]2CCN3C(=O)OC[C@@H]3C2)cc1C(=O)NCc1ccc(Cl)cc1 [Compound 36] | 92.3 | 3.38 | – | 175 | 82 | –
CC1(COc2nc(-c3cnn(C(F)F)c3)c(O[C@H]3CCN4C(=O)OC[C@@H]4C3)cc2C(=O)NCc2ccc(Cl)cc2)COC1 [Compound 90] | 286 | 9.83 | – | 131 | 180 | –
CCOc1nc(-c2cnn(C(F)F)c2)c(O[C@H]2CCN3C(=O)OC[C@@H]3C2)cc1C(=O)NCc1ccc(Cl)cc1 [Compound 101] | 578 | 42.6 | – | 524 | 320 | –
COc1nc(N2CCC(C(C)(C)O)C2)c(O[C@H]2CCN3C(=O)OC[C@@H]3C2)cc1C(=O)NCc1ccc(Cl)cc1 (some centres unmarked) [Compound 67] | – | 22.9 | – | 368 | 568 | 2270
